Assay results: paper PMC10287695, “Non-covalent inhibitors of thioredoxin glutathione reductase with schistosomicidal activity in vivo” (Nature Communications, 2023)
“And” between values parts separate entries of the source, which are not always exact repeats. Identical values can stand only once.

Key:
[1] = target: T1, TGR (Schistosoma mansoni, UniProt Q962Y6, X597U); test: NADPH consumption (oxidase activity); assay type: biochemical, S. mansoni; conditions: replicates
T1 construct: made in house
Protocol: TRi-1, Stattic (both at 50 µM) and AF (20 µM) were incubated with 1 ml of 500 nM TGR and 100 µM NADPH in TGR reaction buffer for 30 min. The samples were desalted using a Zeba spin desalting column (Thermo Fisher Scientific) and 100 µl of the desalted sample was combined with 100 µl of 100 µM NADPH. NADPH consumption was monitored at 340 nm in triplicate. Compounds 1, 4, 6, and 7 (50 µM) were tested in the same fashion without the desalting step and with a first incubation step of 30 min for 6 and 7 and 2 h for 1 and 4.

[2] = target: T1, TGR; test: Superoxide production (pyrogallol red); assay type: biochemical, S. mansoni; conditions: replicates
Protocol: The production of superoxide by TGR was determined by monitoring reaction of superoxide with pyrogallol red[80]. Briefly, a 1 ml reaction mix (500 nM TGR, 100 µM NADPH, and 20–50 µM inhibitor) was incubated at room temperature for 30 min for fast inhibitors, or 2 h for slow inhibitors. For irreversible inhibitor controls TRi-1 (synthesized in house as reported[45]), Stattic (Cayman Chemical), and AF (Cayman Chemical), the samples were desalted using a Zeba spin desalting column. 100 µL of sample was combined with pyrogallol buffer with and without superoxide dismutase (SOD) (50 µM pyrogallol red, 300 µM NADPH; ± 10 units SOD). The reaction was measured at A340 and A540 simultaneously for 2 h.

[3] = tested on: S. mansoni adult worms in mice; test: Schistosomicidal efficacy in infected mice, adult worms (42 d.p.i.); assay type: in vivo; conditions: for Egg burden, Treated, individual mice / Worm burden, Treated, individual mice: Adult worm; for Egg burden, Treated, individual mice: eggs per 50 mg liver (Fig. 6); for decrease in egg burden / decrease in worm burden: mice
Protocol: (§1) To assess the efficacy of the compounds in vivo against juvenile and adult worms, five female Swiss-Webster mice were randomly assigned for the control and experiment groups using a randomization tool embedded in GraphPad Prism. Mice were percutaneously exposed for 1 h to about 80 S. mansoni cercariae. Three- and six-weeks post infection, respectively, for juvenile and adult worms, mice were treated depending on their weight with formulations of the compounds, while the control mice received only the vehicle. Compounds were formulated with 10% DMSO and 10% Tween-80, and vortexed to obtain a uniform mixture. The mixture was sonicated twice for 5 min each time using a digital ultrasonic cleaner heated to 50 °C. Sodium chloride 0.9% (80% normal saline) was added to the mixture, briefly vortexed and sonicated one more time using the same conditions as previous. The investigators were blinded by which group of mice received a treatment and the vehicle, as injection was done by technicians from the Comparative Research Center of Rush University Medical Center. Using a 26 G, 3/8 in intradermal bevel needle, each mouse was administered intraperitoneally with 100 µl of the formulated compound suspension at 50 mg/kg, 100 mg/kg and 200 mg/kg. Mice treated three weeks post infection for juvenile worms were euthanized three weeks post treatment and mice treated six weeks post infection were euthanized one week post treatment with 0.018 ml of Euthasol and 5.85 mg/ml heparin and perfused. The mesenteric and hepatic portal veins of the mice were carefully scanned under the microscope to extract any remaining S. mansoni adult worms and worm burdens were determined. Egg burden was determined by weighing 50 mg of liver tissue from each of treated and control mice. The liver tissues were digested with 5% KOH at 37 °C overnight and washed twice with PBS. The number of eggs per 50 mg of liver tissue was determined using a Keyence BZ-X800 microscope using the egg autofluorescence.

[4] = tested on: S. mansoni juvenile worms in mice; test: Schistosomicidal efficacy in infected mice, juvenile worms (21 d.p.i.); assay type: in vivo; conditions: for Egg burden, Treated, individual mice / Worm burden, Treated, individual mice: Juvenile worm; for Egg burden, Treated, individual mice: eggs per 50 mg liver (Fig. 6); for decrease in egg burden / decrease in worm burden: mice
Protocol: as §1

[5] = target: T2, TGR (Schistosoma mansoni, UniProt Q962Y6); test: Thermal shift assay (TSA); assay type: binding; design: key to Avg. Tm / Tm, replicate 1-3: Tm in °C, from a 25–95 °C melt curve; conditions: for Avg. Tm / Tm, replicate 1-3: TGR + 100 µM compound; for Avg. Tm, + 500 µM NADPH / Tm, replicate 1-3, + 500 µM NADPH: TGR + 100 µM compound + 500 µM NADPH; for Tm, replicate 1-3, + 500 µM NADPH / Tm, replicate 1-3: single replicates; for effect on Tm of oxidized TGR: without NADPH; for increase in the Tm of TGR in the presence of NADPH: 500 µM NADPH
T2 construct: made in house
T2 sequence (Q962Y6 1-598): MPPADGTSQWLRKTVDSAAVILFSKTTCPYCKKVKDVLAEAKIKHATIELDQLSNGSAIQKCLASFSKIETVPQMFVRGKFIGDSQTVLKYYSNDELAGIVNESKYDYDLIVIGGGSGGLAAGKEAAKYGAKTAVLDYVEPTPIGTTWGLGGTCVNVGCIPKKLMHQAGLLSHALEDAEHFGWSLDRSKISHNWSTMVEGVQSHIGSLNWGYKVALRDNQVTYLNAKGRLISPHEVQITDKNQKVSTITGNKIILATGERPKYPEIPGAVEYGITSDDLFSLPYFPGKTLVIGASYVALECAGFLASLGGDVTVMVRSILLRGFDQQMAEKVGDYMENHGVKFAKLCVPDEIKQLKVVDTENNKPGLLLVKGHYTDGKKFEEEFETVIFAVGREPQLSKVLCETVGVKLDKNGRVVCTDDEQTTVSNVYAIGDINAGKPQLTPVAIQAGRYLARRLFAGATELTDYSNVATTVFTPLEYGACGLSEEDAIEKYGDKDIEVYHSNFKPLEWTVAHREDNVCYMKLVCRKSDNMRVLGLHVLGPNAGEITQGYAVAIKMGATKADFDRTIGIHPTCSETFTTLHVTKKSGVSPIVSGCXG
Protocol: Samples were prepared by using a final concentration of 0.25 mg/ml TGR diluted in TGR reaction buffer to the desired volume. To evaluate reduced TGR, 500 µM NADPH was added. […] After the preincubation period, 20 µL samples were pipetted into a BioRad un-skirted PCR 96 well plate and sealed with MicroAmp^TM Optical Adhesive film. The plate was then centrifuged for 5 min at 1000 × g. TSA was carried out using a BioRad CFX Connect qPCR instrument with a melt curve setting of 25 − 95 °C, in increments of 0.5 °C/10 seconds. The SYBR green channel was used to detect fluorescence as the wavelength of flavin fluorescence overlaps with that of SYBR green. BioRad CFX Maestro 5.2 was used to analyze TSA data.

[6] = second of the two columns per substance (condition not given)
[7] = 1 x 100 mg/kg i.p. at 42 d.p.i.
[8] = 2 x 100 mg/kg i.p. (1: bid at 42 d.p.i.; 6: at 42 and 45 d.p.i.)
[9] = 2 x 100 mg/kg at 21 d.p.i. (juvenile worms)
[10] = 1 x 100 mg/kg, listed as 8VP101
[11] = 2 x 50 mg/kg i.p. at 42 and 45 d.p.i.
[12] = 1 x 100 mg/kg at 21 d.p.i. (juvenile worms)

| Structure (SMILES) | NADPH consumption (rate/ΔOD340) [1] | Superoxide production, Pyrogallol red consumption monitored ΔA540 ([2]; condition not given) | Superoxide production, Pyrogallol red consumption monitored ΔA540 [2, 6] | Avg. Tm [5] | Avg. Tm, + 500 µM NADPH [5] | Tm, replicate 1-3, + 500 µM NADPH ([5]; in °C (unit assumed)) | effect on Tm of oxidized TGR [5] | Tm, replicate 1-3 ([5]; in °C (unit assumed)) | also measured |
| --- | --- | --- | --- | --- | --- | --- | --- | --- | --- |
| CC(=O)OC[C@H]1O[C@@H]([S-])[C@H](OC(C)=O)[C@@H](OC(C)=O)[C@@H]1OC(C)=O.CCP(CC)CC.[Au+] [AF, auranofin, reference compound] | -0.0002869 and -0.0002715 and -0.0002247 | -0.0001303 and -1.372e-5 | -0.0001254 and 0.0001668 | – | – | – | – | – | – |
| Cc1oc(-c2ccc3c(c2)OCO3)nc1CN[C@@H]1C[C@@H]2C[C@H]([C@H]1C)C2(C)C [Compound 1] | -0.000815 and -0.0007737 and -0.0007308 | -0.0003735 and -0.0003395 and -0.0002315 | -9.411e-5 and -9.234e-5 and -8.721e-5 | 73.67 | 73.5 | 73.5 | Neither fast 6-9 nor slow TGR inhibitors 1, 3, 5 affected the Tm | – | Egg burden, Treated, individual mice ([3]; 1 x 100 mg/kg, listed as 8VP70): 1302 and 1436 and 1582 and 1478 and 1434; Worm burden, Treated, individual mice ([3]; 1 x 100 mg/kg, listed as 8VP70): 15 and 16 and 12; Egg burden, Treated, individual mice ([3]; 2 x 100 mg/kg, listed as 8VP70): 1572 and 1426 and 1565 and 1335 and 1329; Worm burden, Treated, individual mice ([3]; 2 x 100 mg/kg, listed as 8VP70): 12 and 10 and 9 and 8; decrease in egg burden [3, 7]: 40% and 40.5%; decrease in worm burden [3, 7]: 44% and 43.5%; decrease in egg burden [3, 8]: 48% and 47.5%; decrease in worm burden [3, 8]: 54% and 53.6%; Egg burden, Treated, individual mice ([4]; 2 x 100 mg/kg, listed as 8VP70): 1567 and 1683 and 1698 and 1583 and 1670; Worm burden, Treated, individual mice ([4]; 2 x 100 mg/kg, listed as 8VP70): 21 and 22 and 19 and 20; decrease in egg burden [4, 9]: 31%; decrease in worm burden [4, 9]: 28.2% and 28%; Tm, replicate 1-3 [5]: 73.5 (2×) and 74 |
| CCc1ccccc1-c1nc(CN[C@@H]2C[C@@H]3C[C@H]([C@H]2C)C3(C)C)c(C)o1 [Compound 2] | – | – | – | – | – | – | – | – | Egg burden, Treated, individual mice [3, 10]: 296 and 301 and 311 and 299 and 321; Worm burden, Treated, individual mice [3, 10]: 8 and 6 and 4 and 5; Egg burden, Treated, individual mice ([3]; 2 x 50 mg/kg, listed as 8VP101): 319 and 335 and 372 and 393 and 436; Worm burden, Treated, individual mice ([3]; 2 x 50 mg/kg, listed as 8VP101): 5 and 10 and 8 and 4 and 3; decrease in egg burden [3, 7]: 73% and 73.3%; decrease in worm burden [3, 7]: 85% and 85.2%; decrease in egg burden [3, 11]: 69% and 68.8%; decrease in worm burden [3, 11]: 43% and 42.9%; Egg burden, Treated, individual mice [4, 10]: 986 and 1201 and 968 and 1001 and 988; Worm burden, Treated, individual mice [4, 10]: 12 and 13 and 11 and 8; ED50 ([4]; Schistosoma mansoni, 504 h, based on the single dose tested, 21 d.p.i., read-out: estimated ED50 against juvenile worms): < 100 mg/kg; decrease in egg burden [4, 12]: 56.7% and 57%; decrease in worm burden [4, 12]: 61.3% and 61% and > 60% |
| Cc1oc(-c2ccccc2)nc1CN[C@@H]1C[C@@H]2C[C@H]([C@H]1C)C2(C)C [Compound 3] | – | – | – | 73.5 | 73.67 | – | Neither fast 6-9 nor slow TGR inhibitors 1, 3, 5 affected the Tm | 73.5 | Tm, replicate 1-3, + 500 µM NADPH [5]: 74 and 73.5 (2×) |
| Cc1oc(C2CCCCC2)nc1CN[C@@H]1C[C@@H]2C[C@H]([C@H]1C)C2(C)C [Compound 4] | -0.0007477 and -0.0007112 and -0.0007089 | -0.0003594 and -0.0003266 and -0.0002925 | -3.468e-5 and -5.202e-5 | – | – | – | – | – | – |
| Cc1oc(-c2ccc3ccccc3c2)nc1CNC1CCCCCC1 [Compound 5] | – | – | – | 73.5 | 73.5 | 73.5 | Neither fast 6-9 nor slow TGR inhibitors 1, 3, 5 affected the Tm | 73.5 | – |
| CC1C(NCc2cn(C3OCC(O)C(O)C3O)c3ccccc23)CC2CC1C2(C)C (centres unmarked) [Compound 9] | – | – | – | 74.8 | 68 | 67.5 and 68 and 69 | doesn’t shift the Tm | – | shift of Tm of reduced TGR ([5]; 400uM compound): 1.5 °C; shift of Tm of reduced TGR ([5]; 1mM compound): 3 °C; Tm, replicate 1-3 [5]: 74.5 (2×) and 75 |
| C[C@@H]1[C@H]2C[C@@H](C[C@H]1NCc1cc(-c3ccccc3)[nH]n1)C2(C)C [Compound 11] | – | – | – | 73.5 | 63.67 | – | no effect | 73.5 | increase in the Tm of TGR in the presence of NADPH [5]: no effect; Tm, replicate 1-3, + 500 µM NADPH [5]: 63.5 (2×) and 64 |
| C[C@@H]1[C@H]2C[C@@H](C[C@H]1NCc1nc3ccccc3n1C)C2(C)C [Compound 12] | – | – | – | 73.5 | 64 | 64 | no effect | 73.5 | increase in the Tm of TGR in the presence of NADPH [5]: no effect |
